Data taken from PubChem BioAssay (NCI).
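The compound was tested at five concentrations on cells cultured in 96-well plates, with a 48-hour exposure period. TGI is the concentration that stops growth completely.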

Columns and labels:
Assay in all cases: NCI-60 cell line screen, 48 h
EKVX NSCLC = test system: EKVX NSCLC
HCT-15 colon = test system: HCT-15 colon
K-562 leukemia = test system: K-562 leukemia
MALME-3M melanoma = test system: MALME-3M melanoma
NCI-H23 lung = test system: NCI-H23 lung
NCI-H522 lung = test system: NCI-H522 lung
OVCAR-8 ovarian = test system: OVCAR-8 ovarian
SK-MEL-28 melanoma = test system: SK-MEL-28 melanoma
SK-OV-3 ovarian = test system: SK-OV-3 ovarian
TK-10 renal = test system: TK-10 renal

Structure (SMILES)	TGI (EKVX NSCLC) [µM]	TGI (HCT-15 colon) [µM]	TGI (K-562 leukemia) [µM]	TGI (MALME-3M melanoma) [µM]	TGI (NCI-H23 lung) [µM]	TGI (NCI-H522 lung) [µM]	TGI (OVCAR-8 ovarian) [µM]	TGI (SK-MEL-28 melanoma) [µM]	TGI (SK-OV-3 ovarian) [µM]	TGI (TK-10 renal) [µM]
CCN1CCC(O)(/C=C/c2ccc(C)cc2C)C(C(=O)/C=C/c2ccc(C)cc2C)C1 (stereo not given)	> 26	4.14	> 100	11.4	7.86	3.73	5.08	10.9	26.7	3.41
CC(=O)O[C@]12CCCCCC1C1(O)C(O)CCCC[C@H]12 (stereo not given in full)	> 100	> 100	> 100	> 100	> 100	> 100	> 100	> 100	> 100	> 100
COc1ccc2cc(C(C)C(=O)N3CCOC3=O)ccc2c1 (stereo not given)	> 100	> 100	> 100	> 100	> 100	> 100	> 100	> 100	> 100	> 100
C=CCOc1ccc(C2(O)c3ccccc3C3=NCCCN32)cc1 (stereo not given)	> 100	> 100	> 87.2	27.4	> 100	> 100	> 100	59.3	> 100	> 100
N#CC1=C(N)N(c2ccccc2)C(c2ccccc2)C1(C#N)C#N (stereo not given)	43.8	51.1	26.5	35.6	44.8	34.9	33.5	31.1	78.4	31.8
Nc1nc(Cl)cc(NCC2(CO)CCCC2)n1	> 100	> 100	> 100	> 100	> 100	> 100	> 100	> 100	> 100	> 100
COc1ccc2c(c1)CCN1CCc3ccccc3CC21 (stereo not given)	> 100	> 100	> 100	> 100	> 100	> 100	> 100	98.5	> 100	> 100
COc1c(C(C)C)cc2c3c1OC(=O)[C@@]31CCCC(C)(C)C1CC2 (stereo not given in full)	65.3	> 100	> 100	98.5	89.9	38.7	62	> 100	76.1	99.8
CC1=NNC(=O)C1C(CC(=O)c1c[nH]c2ccccc12)C(=O)O (stereo not given)	> 100	> 100	> 100	> 100	> 100	> 100	> 100	> 100	> 100	> 100
C=CC[C@]12C=C(OC)[C@@H](O)[C@](OC)(C(c3cc(OC)c4c(c3)OCO4)[C@H]1C)[C@H]2OC(C)=O (stereo not given in full)	> 100	> 100	> 100	> 100	> 100	> 100	> 100	> 100	> 100	> 100
O=c1c(C(c2ccc(Cl)cc2)c2c(O)c3ccccc3n(-c3ccccc3)c2=O)c(O)c2ccccc2n1-c1ccccc1	91.1	> 100	> 100	60.1	> 100	> 100	> 100	> 100	> 100	> 100
Cn1c2ccccc2c(=NNc2cccc(C(=O)O)c2)c2ccccc21	28.7	51.4	13.8	38.3	32	21	53.3	35.7	49.6	59.2
CC(C)(Cl)C(Br)CCC(=CCCl)CBr (mixture of isomers)	36.1	3	> 20.1	4.85	4.28	2.24	5.26	5.65	31.2	5.21
Nc1ccc(S(=O)(=O)Nc2nccs2)cc1	> 100	> 100	> 100	> 100	> 100	> 100	> 100	> 100	> 100	> 100
O=C(O)/C=c1/c2ccccc2n2nc3ccccc3c12	> 100	> 100	> 100	96.2	> 100	60	60.8	> 100	65.7	> 100
CN1COCc2c1ccc1cc3ccc4c(c3nc21)COCN4S(C)(=O)=O	> 100	> 100	> 100	> 100	> 100	> 100	> 100	> 100	> 100	> 100
COc1ccc(C2OC(c3ccncc3)=NN2C)cc1OC (stereo not given)	> 100	> 100	> 100	> 100	> 100	> 100	> 100	> 100	> 100	> 100
CC(C)(C)C(=O)CC1=Nc2ccccc2SC1(O)CC(=O)C(C)(C)C (stereo not given)	59.6	52.8	97.1	> 100	98.7	34.4	57	66	53.6	> 100

Structure (SMILES)	TGI (EKVX NSCLC) [µM]	TGI (HCT-15 colon) [µM]	TGI (K-562 leukemia) [µM]	TGI (MALME-3M melanoma) [µM]	TGI (NCI-H23 lung) [µM]	TGI (NCI-H522 lung) [µM]	TGI (OVCAR-8 ovarian) [µM]	TGI (SK-MEL-28 melanoma) [µM]	TGI (SK-OV-3 ovarian) [µM]	TGI (TK-10 renal) [µM]
O=C1O[C@H](c2ccc3c(c2)OCO3)[C@H]2CO[C@@H](c3ccc4c(c3)OCO4)[C@@H]12	> 100	> 100	> 100	> 100	> 100	> 100	> 100	> 100	> 100	> 100
C=C1C(=O)C=C[C@]2(C)CC[C@H]3C(=C)C(=O)O[C@@H]3[C@@H]12	8.7	13.8	4.24	5.18	9.61	3.77	17.2	4.04	21.2	1.98
C#C[C@]1(O)CC[C@H]2[C@@H]3CCC4=C/C(=N/OC(=O)c5cccc6c(=O)c7ccccc7[nH]c56)CC[C@@H]4[C@H]3CC[C@@]21C	> 100	> 100	59	> 100	> 100	84.1	> 100	> 100	> 100	> 100
CCOC(=O)NC(Nc1cccc(C(F)(F)F)c1)(C(F)(F)F)C(F)(F)F	> 100	> 100	> 100	> 100	> 100	> 100	> 100	> 100	> 100	> 100
CN1[C@@H]2C[C@@H](OC(=O)[C@H](CO)c3ccccc3)C[C@H]1[C@@H]1O[C@@H]12	> 100	> 100	> 100	> 100	> 100	> 100	> 100	> 100	> 100	> 100
O=c1oc2ccc([N+](=O)[O-])cc2c(Nc2ccc3c(c2)Oc2ccccc2O3)c1[N+](=O)[O-]	> 100	> 100	86.7	> 100	62.3	> 100	> 100	> 100	> 100	> 100
Nc1[nH]nc2nc3ccc(C(F)(F)F)cc3nc12	> 100	> 100	> 100	> 100	57.2	38.8	46	42.6	52.7	> 100
CC(=O)[C@@]1(O)CC[C@H]2[C@@H]3C[C@H](C)C4=CC(=O)C=C[C@]4(C)[C@@]3(F)[C@@H](O)C[C@@]21C	> 100	> 100	> 100	> 100	> 100	> 100	> 100	> 100	> 100	> 100
CCC1(C)C=Cc2c(cc(O)c3c(=O)c4ccccc4n(C)c23)O1 (stereo not given)	> 10	> 10	> 10	> 10	> 10	> 10	> 10	> 10	> 10	> 10
CC(C)(C)OC(=O)NCCCNC1(c2cc3ccccc3s2)CCCCC1	28.6	29.5	26.3	30.9	26.4	32	35.1	29.9	26.2	32
O=[N+]([O-])/C(C(Cl)=C(Cl)Cl)=C(\N1CCCCC1)n1cncn1	31.6	38.1	> 100	30.9	30.2	31.6	40.8	37.5	37.3	33.2
COc1ccc(NS(=O)(=O)c2ccc(NC(NC(=O)CC(C)C)(C(F)(F)F)C(F)(F)F)cc2)nn1	> 100	> 100	> 100	> 100	> 100	> 100	> 100	> 100	> 100	> 100
CC(=O)O[C@H]1CC[C@@]2(C)C(=CC[C@H]3[C@@H]4C[C@H](N5CCOCC5)[C@H](OC(C)=O)[C@@]4(C)CC[C@@H]32)C1	> 100	> 100	> 100	> 100	> 100	> 100	> 100	> 100	> 100	> 100
CC12CCC(O)CC1CCC1C2CCC2(C)C(C(=O)CC(O)C(F)(F)F)CCC12 (stereo not given)	98.9	> 100	17.4	> 100	> 100	> 100	> 100	> 100	79.5	> 100
COc1ccc2c(cnc3c4cc(OC)c(OC)cc4ccc23)c1	> 100	> 100	> 100	> 100	> 100	> 100	> 100	> 100	> 100	> 100
Cc1nc2sc3ccccc3n2c(=O)c1N=Nc1ccc(Cl)cc1	> 100	> 100	> 100	> 100	> 100	> 100	> 100	> 100	> 100	> 100
CCOC(=O)C1C2CCC1CC(=NNc1ccc([N+](=O)[O-])cc1[N+](=O)[O-])C2 (stereo not given)	> 50	> 50	> 50	> 50	> 50	> 50	> 50	> 50	> 50	> 50
